This note sets out measurements from ChEMBL document CHEMBL1153340, “Inhibitors of HIV-1 attachment. Part 2: An initial survey of indole substitution patterns” (Bioorg Med Chem Lett, 2009).

Data set [1] in a line: Solubility in water. Particulars: buffer. The format is physicochemical.
Data set [2] in a line: Tmax in rat at 5 mg/kg, po dosed as nanosuspension. The format is ADME, organism-based. Details: dose 5 mg/kg, route oral. The following applies: in vivo.
Data set [3] can be described thus: Terminal half life in rat at 5 mg/kg, iv dosed as solution in PEG400/EtOH. It counts as ADME, organism-based. Details: dose 5 mg/kg, route intravenous. Particulars: in vivo, read-out: beta t1/2.
For data set [4], the system named is Human immunodeficiency virus 1. Kind of data set: Antiviral activity against pseudotype HIV1 JRFL infected in human HeLa67 cells expressing CD4/CCR5 after 3 days by luciferase reporter gene assay. It counts as functional, organism-based. The following applies: Human immunodeficiency virus 1, JRFL, HeLa67, 72 h.
Data set [5] in a line: Cmax in dog at 1 mg/kg, po dosed as micronized suspension. The format is ADME, organism-based, Canis lupus familiaris. Particulars: in vivo. Details: dose 1 mg/kg, route oral.
A short description of data set [6]: Cytotoxicity against human HeLa67 cells expressing CD4/CCR5 after 3 days by XTT assay. It counts as cell-based. Background: Formazan colour is commonly taken as a measure of viable cells.
Data set [7] in a line: Tmax in dog at 1 mg/kg, po dosed as micronized suspension. It counts as ADME, organism-based, Canis lupus familiaris. Also on record: dose 1 mg/kg, route oral. The following applies: in vivo.
Data set [8] is described as follows: Cmax in rat at 25 mg/kg, po dosed as solution in PEG400/EtOH. The format is ADME, organism-based. Also on record: dose 25 mg/kg, route oral. The following applies: in vivo.
A short description of data set [9]: Clearance in rat at 5 mg/kg, iv dosed as solution in PEG400/EtOH. Also on record: dose 5 mg/kg, route intravenous. Particulars: in vivo. It counts as ADME, organism-based.
The nature of data set [10]: Oral bioavailability in rat at 5 mg/kg dosed as solution in PEG400/EtOH. The format is ADME, organism-based. The following applies: in vivo.
Data set [11] in a line: Solubility in poly ethylene glycol 400. The format is physicochemical. Particulars: polyethylene glycol 400.
Data set [12] can be described thus: Oral bioavailability in dog at 1 mg/kg dosed as solution in PEG400/EtOH. The format is ADME, organism-based, Canis lupus familiaris. The following applies: in vivo.
Data set [13] can be described thus: Tmax in dog at 1 mg/kg, po dosed as solution in PEG400/EtOH. The format is ADME, organism-based, Canis lupus familiaris. Also on record: dose 1 mg/kg, route oral. The following applies: in vivo.
The nature of data set [14]: Tmax in rat at 5 mg/kg, po dosed as solution in PEG400/EtOH. It counts as ADME, organism-based. Also on record: dose 5 mg/kg, route oral. Particulars: in vivo.
A short description of data set [15]: Tmax in dog at 1 mg/kg, po dosed as nanosuspension. The following applies: in vivo. Also on record: dose 1 mg/kg, route oral. It counts as ADME, organism-based, Canis lupus familiaris.
Data set [16] can be described thus: Tmax in rat at 25 mg/kg, po dosed as solution in PEG400/EtOH. The format is ADME, organism-based. Also on record: dose 25 mg/kg, route oral. The following applies: in vivo.
Data set [17] can be described thus: Cmax in dog at 1 mg/kg, po dosed as nanosuspension. The format is ADME, organism-based, Canis lupus familiaris. Also on record: dose 1 mg/kg, route oral. The following applies: in vivo.
A short description of data set [18]: Mean residence time in rat at 5 mg/kg, iv dosed as solution in PEG400/EtOH. It counts as ADME, organism-based. Also on record: dose 5 mg/kg, route intravenous. Particulars: in vivo.
Data set [19] can be described thus: Volume of distribution at steady state in rat at 5 mg/kg, iv dosed as solution in PEG400/EtOH. The format is ADME, organism-based. Details: dose 5 mg/kg, route intravenous. The following applies: in vivo, read-out: Vdss.
A short description of data set [20]: Oral bioavailability in rat at 25 mg/kg dosed as solution in PEG400/EtOH. The format is ADME, organism-based. The following applies: in vivo.
A short description of data set [21]: Terminal half life in rat at 25 mg/kg, po dosed as solution in PEG400/EtOH. The format is ADME, organism-based. Details: dose 25 mg/kg, route oral. The following applies: in vivo, read-out: beta t1/2.
The nature of data set [22]: Oral bioavailability in rat at 5 mg/kg dosed as nanosuspension. The format is ADME, organism-based. The following applies: in vivo.
A short description of data set [23]: Oral bioavailability in dog at 1 mg/kg dosed as nanosuspension. It counts as ADME, organism-based, Canis lupus familiaris. Particulars: in vivo.
A short description of data set [24]: Cmax in dog at 1 mg/kg, po dosed as solution in PEG400/EtOH. The format is ADME, organism-based, Canis lupus familiaris. Details: dose 1 mg/kg, route oral. The following applies: in vivo.
Data set [25] in a line: Oral bioavailability in dog at 1 mg/kg dosed as micronized suspension. The format is ADME, organism-based, Canis lupus familiaris. The following applies: in vivo.
The nature of data set [26]: Permeability across human Caco-2 cells. Particulars: read-out: permeability. It counts as ADME, cell-based. For orientation: Caco-2 cells form a polarised layer with tight junctions and transporters.
The nature of data set [27]: Cmax in rat at 5 mg/kg, po dosed as nanosuspension. It counts as ADME, organism-based. Also on record: dose 5 mg/kg, route oral. The following applies: in vivo.
A short description of data set [28]: Mean residence time in rat at 1 mg/kg, iv dosed as solution in PEG400/EtOH. The following applies: in vivo. It counts as ADME, organism-based. Details: dose 1 mg/kg, route intravenous.
Data set [29] can be described thus: Terminal half life in rat at 1 mg/kg, iv dosed as solution in PEG400/EtOH. It counts as ADME, organism-based. Also on record: dose 1 mg/kg, route intravenous. Particulars: in vivo, read-out: beta t1/2.
Data set [30] is described as follows: Clearance in rat at 1 mg/kg, iv dosed as solution in PEG400/EtOH. The format is ADME, organism-based. Details: dose 1 mg/kg, route intravenous. The following applies: in vivo.
A short description of data set [31]: Cmax in rat at 5 mg/kg, po dosed as solution in PEG400/EtOH. The format is ADME, organism-based. Details: dose 5 mg/kg, route oral. Particulars: in vivo.
Data set [32] in a line: Terminal half life in rat at 5 mg/kg, po dosed as solution in PEG400/EtOH. It counts as ADME, organism-based. Details: dose 5 mg/kg, route oral. Particulars: in vivo, read-out: beta t1/2.
Data set [33] can be described thus: Volume of distribution at steady state in rat at 1 mg/kg, iv dosed as solution in PEG400/EtOH. It counts as ADME, organism-based. Details: dose 1 mg/kg, route intravenous. The following applies: in vivo, read-out: Vdss.
Data set [34] deals with Human immunodeficiency virus 1. Kind of data set: Antiviral activity against pseudotype HIV1 LAI infected in human HeLa67 cells expressing CD4/CCR5 after 3 days by luciferase reporter gene assay. The format is functional, organism-based. Particulars: Human immunodeficiency virus 1, LAI, HeLa67, 72 h. For orientation: A reporter such as luciferase makes a cellular process visible.

SMILES strings stand for the structures. Converted amounts (≈) assume the structure as drawn.

One may read the solubility as how much of the substance goes into solution per volume. Higher therefore signals much dissolved substance. The Tmax is the time at which the peak concentration occurs. The term EC50 denotes the midpoint of the concentration-response curve. Read a high EC50 as lower potency in that assay. The term Cmax denotes the peak of the concentration-time curve. The CC50 is the concentration giving 50% cytotoxicity. The low end stands for greater toxicity to the cells, the high end for lower toxicity to the cells. Usually clearance stands for the rate of elimination divided by the concentration. A word on the MRT: it is a mean duration of stay, worked out from the concentration-time curve. As to `O=C(C(=O)N1CCN(C(=O)c2ccccc2)CC1)c1c[nH]c2cccc(F)c12`, the solubility was 5 ng/mL (≈ 1.32e-05 mM) in [1] and 4600 µg/mL (≈ 12.1 mM) in data set [11]. Further, the Tmax in data set [2] is 2.83 h; in data set [7], 4 h; in data set [13] it was 1.2 h; in [14], 37 min; in data set [15], 1.8 h; in [16], 53 min. Further, the figures for the half-life in [3] and in data set [21] were 28 min and 72 min, respectively. Further, it took 2.59 nM to reach a half-maximal effect in [4] (EC50). The maximum concentration (Cmax) in [5] came to 60 ng/mL; in [8], 649 ng/mL; in data set [17] it was 160 ng/mL; in data set [24] it was 560 ng/mL; in data set [27] it was 18 ng/mL. Besides, the CC50 at 72 h in [6] is more than 300 µM. The clearance in [9] was found to be 48 mL/min/kg. Also, the bioavailability in data set [10] was determined as 9%; in data set [12] it was 89%; in [20], 17%; in data set [22], 4%; in data set [23], 36%; in data set [25], 12%. This compound gave an MRT in data set [18] of 21 min. The Vd in [19] was found to be 0.99 L/kg. Further, in [26], the Papp turned out to be 10 ×10⁻⁶ cm/s.

The compound `O=C(C(=O)N1CCN(C(=O)c2ccccc2)CC1)c1c[nH]c2c(F)ccc(F)c12` gave an MRT in data set [28] of 0.317 h. The half-life in [29] came to 17 min; in data set [32], 551 min. Moreover, in data set [4], the EC50 was 0.35 nM. In addition, the half-maximal cytotoxic concentration (CC50) at 72 h in data set [6] is more than 300 µM. In addition, in data set [10], the bioavailability came to 11%. For the same compound, the Tmax in data set [14] is 20 min. The clearance in data set [30] came to 46.9 mL/min/kg. In data set [31], this compound yielded a Cmax of 55 ng/mL. In data set [33], the Vd was determined as 0.85 L/kg. Moreover, in [26], the Papp is 21.9 ×10⁻⁶ cm/s.

In [28], `COc1ccc(OC)c2c(C(=O)C(=O)N3CCN(C(=O)c4ccccc4)CC3)c[nH]c12` gave an MRT of 1.7 h. Moreover, the half-life in data set [29] is 138 min; in data set [32], 111 min. This compound also had an EC50 in data set [4] of 0.23 nM. Further, half-maximal cytotoxicity in data set [6] (CC50 at 72 h) was put at 279 µM. In [10], the bioavailability turned out to be 107%. The Tmax in data set [14] is 180 min. The same compound registered a clearance in data set [30] of 5.2 mL/min/kg. The concentration in data set [31] peaked (Cmax) at 3200 ng/mL. Besides, the Vd in [33] is 0.52 L/kg.

On to `O=C(C(=O)N1CCN(C(=O)c2ccccc2)CC1)c1c[nH]c2cc(Cl)c(Cl)cc12`, for which, in [6], the CC50 at 72 h was determined as 52.3 µM. For the same compound, the midpoint of the response in data set [34], the EC50, lay at 500 nM.
